In ChEMBL document CHEMBL5338754, “Identification of Binding Sites in the Nucleotide-Binding Domain of P-Glycoprotein for a Potent and Nontoxic Modulator, the Amine-Containing Monomeric Flavonoid FM04” (J Med Chem, 2023):

How the values were obtained:
[1] = biological target: T1, ATP-dependent translocase ABCB1 (Homo sapiens, UniProt P08183); test: Negative allosteric modulator activity at P-gp in human LCC6MDR cells overexpressing P-gp assessed as reversal of P-gp mediated paclitaxel resistance activity by measuring relative fold at 1 uM incubated for 5 days by MTS assay; assay type: cell-based; settings: 120 h, time 5 day
T1 sequence (P08183 whole entry): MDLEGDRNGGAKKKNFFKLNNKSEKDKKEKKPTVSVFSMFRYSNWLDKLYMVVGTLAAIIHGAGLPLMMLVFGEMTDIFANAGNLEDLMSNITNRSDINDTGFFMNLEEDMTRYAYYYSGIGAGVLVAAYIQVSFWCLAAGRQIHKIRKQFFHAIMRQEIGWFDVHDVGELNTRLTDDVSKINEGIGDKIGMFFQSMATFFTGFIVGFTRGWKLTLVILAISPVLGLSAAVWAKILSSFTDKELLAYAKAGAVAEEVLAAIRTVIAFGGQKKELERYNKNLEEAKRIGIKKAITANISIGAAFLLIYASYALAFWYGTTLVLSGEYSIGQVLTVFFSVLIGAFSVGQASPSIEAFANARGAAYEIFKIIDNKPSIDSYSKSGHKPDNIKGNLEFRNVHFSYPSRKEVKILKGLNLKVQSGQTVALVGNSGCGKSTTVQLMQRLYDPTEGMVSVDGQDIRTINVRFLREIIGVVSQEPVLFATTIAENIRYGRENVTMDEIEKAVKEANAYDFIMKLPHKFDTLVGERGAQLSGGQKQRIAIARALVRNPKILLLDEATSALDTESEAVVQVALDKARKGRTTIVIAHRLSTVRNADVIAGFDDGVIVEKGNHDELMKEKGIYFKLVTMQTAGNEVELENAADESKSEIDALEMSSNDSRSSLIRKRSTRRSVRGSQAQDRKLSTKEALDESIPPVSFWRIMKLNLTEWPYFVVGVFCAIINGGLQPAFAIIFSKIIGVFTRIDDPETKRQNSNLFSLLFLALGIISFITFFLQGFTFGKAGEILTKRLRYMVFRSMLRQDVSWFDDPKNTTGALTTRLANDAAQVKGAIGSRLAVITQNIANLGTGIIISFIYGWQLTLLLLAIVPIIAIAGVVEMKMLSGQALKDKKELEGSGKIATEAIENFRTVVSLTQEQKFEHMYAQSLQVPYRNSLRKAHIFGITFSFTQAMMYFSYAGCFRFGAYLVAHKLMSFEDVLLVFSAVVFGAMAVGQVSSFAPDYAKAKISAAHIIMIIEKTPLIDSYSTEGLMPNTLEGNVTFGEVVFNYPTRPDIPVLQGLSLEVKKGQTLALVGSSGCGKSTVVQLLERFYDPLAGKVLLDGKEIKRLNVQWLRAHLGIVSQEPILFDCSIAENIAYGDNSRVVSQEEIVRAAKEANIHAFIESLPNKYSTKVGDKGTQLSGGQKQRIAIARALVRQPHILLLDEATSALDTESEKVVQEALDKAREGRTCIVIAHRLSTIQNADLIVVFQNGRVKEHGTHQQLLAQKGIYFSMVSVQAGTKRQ

[2] = biological target: T1, ATP-dependent translocase ABCB1; test: Binding affinity to human P-glycoprotein expressed in LCC6MDR cells assessed as stabilization of protein by measuring fluorescence at 100 uM incubated for 1 hr by Western blotting analysis; assay type: cell-based
[3] = biological target: ATP-dependent translocase ABCB1 (Mus musculus, UniProt P06795); test: Binding affinity to mouse P-glycoprotein expressed in Pichia pastoris assessed as stabilization of protein by measuring fluorescence at 100 uM incubated for 1 hr by Western blotting analysis
[4] = biological target: T2, ATP-dependent translocase ABCB1 (Homo sapiens, UniProt P08183, C1227A); test: Negative allosteric modulator activity at human P-gp C1227A mutant expressed in HEK293FT cells assessed as reversal of P-gp mediated PTX resistance by measuring sensitivity fold change incubated for 5 days by MTS assay; assay type: cell-based; settings: 120 h, time 5 day
T2 sequence (P08183 whole entry C1227A): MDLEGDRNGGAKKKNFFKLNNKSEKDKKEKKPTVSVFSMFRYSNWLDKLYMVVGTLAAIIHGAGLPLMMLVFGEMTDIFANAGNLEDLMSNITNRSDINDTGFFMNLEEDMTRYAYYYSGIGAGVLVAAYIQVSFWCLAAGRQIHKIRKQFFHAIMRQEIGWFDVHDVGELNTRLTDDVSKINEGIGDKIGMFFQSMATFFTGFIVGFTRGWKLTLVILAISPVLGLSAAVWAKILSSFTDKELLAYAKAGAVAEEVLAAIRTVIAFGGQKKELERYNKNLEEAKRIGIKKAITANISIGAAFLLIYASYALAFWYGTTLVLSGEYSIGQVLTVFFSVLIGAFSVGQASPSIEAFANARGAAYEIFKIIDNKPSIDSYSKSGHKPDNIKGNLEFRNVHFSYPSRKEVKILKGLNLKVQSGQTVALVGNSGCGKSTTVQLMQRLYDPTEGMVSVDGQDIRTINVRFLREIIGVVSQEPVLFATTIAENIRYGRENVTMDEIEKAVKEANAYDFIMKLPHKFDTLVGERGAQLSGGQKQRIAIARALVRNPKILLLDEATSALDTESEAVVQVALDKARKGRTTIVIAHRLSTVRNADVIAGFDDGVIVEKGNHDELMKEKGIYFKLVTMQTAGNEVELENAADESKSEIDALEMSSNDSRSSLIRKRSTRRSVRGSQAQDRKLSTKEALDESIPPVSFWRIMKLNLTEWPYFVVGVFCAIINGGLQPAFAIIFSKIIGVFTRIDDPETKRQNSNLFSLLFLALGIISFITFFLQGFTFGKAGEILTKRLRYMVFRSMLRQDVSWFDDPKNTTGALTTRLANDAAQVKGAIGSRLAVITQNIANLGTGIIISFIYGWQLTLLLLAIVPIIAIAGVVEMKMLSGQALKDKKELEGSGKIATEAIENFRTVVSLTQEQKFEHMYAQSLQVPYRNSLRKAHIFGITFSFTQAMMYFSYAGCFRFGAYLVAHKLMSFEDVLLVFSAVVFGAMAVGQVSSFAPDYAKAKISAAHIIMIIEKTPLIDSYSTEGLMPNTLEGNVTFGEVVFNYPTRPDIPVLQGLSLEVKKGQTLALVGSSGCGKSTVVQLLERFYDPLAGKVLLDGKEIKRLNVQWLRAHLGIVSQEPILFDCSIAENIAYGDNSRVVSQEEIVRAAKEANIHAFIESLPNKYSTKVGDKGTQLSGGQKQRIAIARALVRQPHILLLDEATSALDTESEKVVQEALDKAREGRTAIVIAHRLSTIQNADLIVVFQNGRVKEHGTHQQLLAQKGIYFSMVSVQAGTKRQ

[5] = biological target: T3, ATP-dependent translocase ABCB1 (Homo sapiens, UniProt P08183, Q1193K); test: Negative allosteric modulator activity at human P-gp Q1193K mutant expressed in HEK293FT cells assessed as reversal of P-gp mediated PTX resistance by measuring sensitivity fold change incubated for 5 days by MTS assay; assay type: cell-based; settings: 120 h, time 5 day
T3 sequence (P08183 whole entry Q1193K): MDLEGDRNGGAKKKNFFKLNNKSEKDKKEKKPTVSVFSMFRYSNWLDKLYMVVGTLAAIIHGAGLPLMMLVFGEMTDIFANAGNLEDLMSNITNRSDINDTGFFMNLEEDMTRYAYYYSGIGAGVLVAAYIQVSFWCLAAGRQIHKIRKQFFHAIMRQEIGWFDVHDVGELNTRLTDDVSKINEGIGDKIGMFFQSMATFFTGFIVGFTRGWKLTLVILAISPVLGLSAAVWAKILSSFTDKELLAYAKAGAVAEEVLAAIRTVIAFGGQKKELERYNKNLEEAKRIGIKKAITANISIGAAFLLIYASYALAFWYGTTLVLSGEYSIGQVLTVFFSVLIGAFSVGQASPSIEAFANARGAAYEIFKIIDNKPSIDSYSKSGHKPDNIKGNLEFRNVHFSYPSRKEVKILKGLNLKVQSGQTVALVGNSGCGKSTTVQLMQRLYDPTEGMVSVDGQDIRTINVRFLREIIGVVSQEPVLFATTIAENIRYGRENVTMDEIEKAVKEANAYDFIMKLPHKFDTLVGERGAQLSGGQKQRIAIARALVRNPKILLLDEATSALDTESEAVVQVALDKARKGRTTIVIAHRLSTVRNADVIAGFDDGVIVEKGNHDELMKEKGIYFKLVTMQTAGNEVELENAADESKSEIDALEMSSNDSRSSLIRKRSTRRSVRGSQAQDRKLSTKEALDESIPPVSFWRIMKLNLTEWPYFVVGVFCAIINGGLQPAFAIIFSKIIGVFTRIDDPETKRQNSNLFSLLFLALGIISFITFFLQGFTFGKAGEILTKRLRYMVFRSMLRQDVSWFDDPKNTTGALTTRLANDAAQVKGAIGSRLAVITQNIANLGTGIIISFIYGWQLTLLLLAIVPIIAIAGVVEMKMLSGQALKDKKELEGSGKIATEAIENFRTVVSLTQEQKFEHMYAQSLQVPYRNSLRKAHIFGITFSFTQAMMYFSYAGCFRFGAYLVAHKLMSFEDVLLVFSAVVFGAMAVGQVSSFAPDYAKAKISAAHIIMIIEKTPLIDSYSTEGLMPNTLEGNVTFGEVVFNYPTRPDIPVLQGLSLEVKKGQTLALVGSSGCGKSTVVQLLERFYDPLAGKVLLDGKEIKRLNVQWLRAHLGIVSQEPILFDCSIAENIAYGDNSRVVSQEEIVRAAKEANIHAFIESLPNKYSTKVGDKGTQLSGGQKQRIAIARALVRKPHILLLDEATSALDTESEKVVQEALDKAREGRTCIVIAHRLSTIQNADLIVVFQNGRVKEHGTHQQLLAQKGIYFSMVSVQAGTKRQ

[6] = biological target: ATP-dependent translocase ABCB1 (Homo sapiens, UniProt P08183, Q1193N); test: Negative allosteric modulator activity at human P-gp Q1193N mutant expressed in HEK293FT cells assessed as reversal of P-gp mediated PTX resistance by measuring sensitivity fold change incubated for 5 days by MTS assay; assay type: cell-based; settings: 120 h, time 5 day
[7] = biological target: ATP-dependent translocase ABCB1 (Homo sapiens, UniProt P08183, Q1193A); test: Negative allosteric modulator activity at human P-gp Q1193A mutant expressed in HEK293FT cells assessed as increase in intracellular doxorubicin accumulation using doxorubicin as substrate at 1 uM incubated for 150 mins by microplate reader assay (reference value: 53.6 +/- 3 %); assay type: cell-based; settings: 2.5 h
[8] = biological target: T4, ATP-dependent translocase ABCB1 (Homo sapiens, UniProt P08183, Q1193F); test: Negative allosteric modulator activity at human P-gp Q1193F mutant expressed in HEK293FT cells assessed as increase in intracellular doxorubicin accumulation using doxorubicin as substrate at 1 uM incubated for 150 mins by microplate reader assay (reference value: 64.7 +/- 2.6 %); assay type: cell-based; settings: 2.5 h
T4 sequence (P08183 whole entry Q1193F): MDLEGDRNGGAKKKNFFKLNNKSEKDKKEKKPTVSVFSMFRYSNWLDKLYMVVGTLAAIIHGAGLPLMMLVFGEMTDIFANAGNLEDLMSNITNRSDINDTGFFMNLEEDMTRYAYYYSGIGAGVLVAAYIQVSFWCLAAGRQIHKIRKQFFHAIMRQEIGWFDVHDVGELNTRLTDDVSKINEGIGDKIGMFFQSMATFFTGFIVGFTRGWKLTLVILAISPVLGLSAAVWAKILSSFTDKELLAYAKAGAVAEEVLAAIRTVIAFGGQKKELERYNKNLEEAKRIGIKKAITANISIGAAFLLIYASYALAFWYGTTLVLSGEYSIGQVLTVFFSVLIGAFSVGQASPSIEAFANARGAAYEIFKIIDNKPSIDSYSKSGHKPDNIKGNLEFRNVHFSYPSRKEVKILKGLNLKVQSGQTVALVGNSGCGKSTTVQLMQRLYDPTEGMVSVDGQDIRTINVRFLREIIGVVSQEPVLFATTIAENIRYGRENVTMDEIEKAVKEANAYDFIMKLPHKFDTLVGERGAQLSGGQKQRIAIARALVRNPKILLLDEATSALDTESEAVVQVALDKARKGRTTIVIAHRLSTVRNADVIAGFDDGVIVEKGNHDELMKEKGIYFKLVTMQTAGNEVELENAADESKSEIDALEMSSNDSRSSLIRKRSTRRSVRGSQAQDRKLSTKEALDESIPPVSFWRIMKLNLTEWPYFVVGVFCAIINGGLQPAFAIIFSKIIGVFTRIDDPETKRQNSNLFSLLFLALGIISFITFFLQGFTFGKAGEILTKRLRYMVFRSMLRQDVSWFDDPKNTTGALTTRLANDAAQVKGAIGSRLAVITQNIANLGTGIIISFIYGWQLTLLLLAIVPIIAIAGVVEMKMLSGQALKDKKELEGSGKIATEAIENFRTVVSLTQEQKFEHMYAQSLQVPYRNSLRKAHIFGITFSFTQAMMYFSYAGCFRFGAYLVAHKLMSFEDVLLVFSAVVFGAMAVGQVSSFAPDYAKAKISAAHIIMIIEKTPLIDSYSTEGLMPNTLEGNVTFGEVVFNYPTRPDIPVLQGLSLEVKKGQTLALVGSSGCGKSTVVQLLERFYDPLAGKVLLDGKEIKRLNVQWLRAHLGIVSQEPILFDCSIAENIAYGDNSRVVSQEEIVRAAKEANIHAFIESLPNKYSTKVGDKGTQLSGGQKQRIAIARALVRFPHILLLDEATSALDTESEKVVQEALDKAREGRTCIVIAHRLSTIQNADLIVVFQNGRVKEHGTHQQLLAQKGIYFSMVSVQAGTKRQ

[9] = biological target: T3, ATP-dependent translocase ABCB1; test: Negative allosteric modulator activity at human P-gp Q1193K mutant expressed in HEK293FT cells assessed as increase in intracellular doxorubicin accumulation using doxorubicin as substrate at 1 uM incubated for 150 mins by microplate reader assay (reference value: 69.1 +/- 1 %); assay type: cell-based; settings: 2.5 h
[10] = biological target: ATP-dependent translocase ABCB1 (Homo sapiens, UniProt P08183, I1115Y); test: Negative allosteric modulator activity at human P-gp I1115Y mutant expressed in HEK293FT cells assessed as increase in intracellular doxorubicin accumulation using doxorubicin as substrate at 1 uM incubated for 150 mins by microplate reader assay (reference value: 97.3 +/- 3.7 %); assay type: cell-based; settings: 2.5 h
[11] = biological target: ATP-dependent translocase ABCB1 (Homo sapiens, UniProt P08183, I1115K); test: Negative allosteric modulator activity at human P-gp I1115K mutant expressed in HEK293FT cells assessed as increase in intracellular doxorubicin accumulation using doxorubicin as substrate at 1 uM incubated for 150 mins by microplate reader assay (reference value: 97.8 +/- 3.1 %); assay type: cell-based; settings: 2.5 h
[12] = biological target: ATP-dependent translocase ABCB1 (Homo sapiens, UniProt P08183, I1115M); test: Negative allosteric modulator activity at human P-gp I1115M mutant expressed in HEK293FT cells assessed as increase in intracellular doxorubicin accumulation using doxorubicin as substrate at 1 uM incubated for 150 mins by microplate reader assay (reference value: 97 +/- 3.1 %); assay type: cell-based; settings: 2.5 h
[13] = biological target: ATP-dependent translocase ABCB1 (Homo sapiens, UniProt P08183, G1114A); test: Negative allosteric modulator activity at human P-gp G1114A mutant expressed in HEK293FT cells assessed as fold change in intracellular doxorubicin accumulation using doxorubicin as substrate at 1 uM incubated for 150 mins by microplate reader assay relative to DMSO; assay type: cell-based; settings: 2.5 h
[14] = biological target: ATP-dependent translocase ABCB1 (Homo sapiens, UniProt P08183, H1195A); test: Negative allosteric modulator activity at human P-gp H1195A mutant expressed in HEK293FT cells assessed as fold change in intracellular doxorubicin accumulation using doxorubicin as substrate at 1 uM incubated for 150 mins by microplate reader assay relative to DMSO; assay type: cell-based; settings: 2.5 h
[15] = biological target: ATP-dependent translocase ABCB1 (Homo sapiens, UniProt P08183, L1113A); test: Negative allosteric modulator activity at human P-gp L1113A mutant expressed in HEK293FT cells assessed as fold change in intracellular doxorubicin accumulation using doxorubicin as substrate at 1 uM incubated for 150 mins by microplate reader assay relative to DMSO; assay type: cell-based; settings: 2.5 h
[16] = biological target: T2, ATP-dependent translocase ABCB1; test: Negative allosteric modulator activity at human P-gp C1227A mutant expressed in HEK293FT cells assessed as fold change in intracellular doxorubicin accumulation using doxorubicin as substrate at 1 uM incubated for 150 mins by microplate reader assay relative to DMSO; assay type: cell-based; settings: 2.5 h
[17] = biological target: ATP-dependent translocase ABCB1 (Homo sapiens, UniProt P08183, Q1193T); test: Negative allosteric modulator activity at human P-gp Q1193T mutant expressed in HEK293FT cells assessed as fold change in intracellular doxorubicin accumulation using doxorubicin as substrate at 1 uM incubated for 150 mins by microplate reader assay relative to DMSO; assay type: cell-based; settings: 2.5 h
[18] = biological target: ATP-dependent translocase ABCB1 (Homo sapiens, UniProt P08183, G1114V); test: Negative allosteric modulator activity at human P-gp G1114V mutant expressed in HEK293FT cells assessed as fold change in intracellular doxorubicin accumulation using doxorubicin as substrate at 1 uM incubated for 150 mins by microplate reader assay relative to DMSO; assay type: cell-based; settings: 2.5 h
[19] = biological target: ATP-dependent translocase ABCB1 (Homo sapiens, UniProt P08183, G1114L); test: Negative allosteric modulator activity at human P-gp G1114L mutant expressed in HEK293FT cells assessed as fold change in intracellular doxorubicin accumulation using doxorubicin as substrate at 1 uM incubated for 150 mins by microplate reader assay relative to DMSO; assay type: cell-based; settings: 2.5 h
[20] = biological target: T4, ATP-dependent translocase ABCB1; test: Activation of P-gp ATPase activity in human P-gp Q1193F mutant expressed in HEK293FT cell microsomes assessed as fold change of ATPase activity at 20 uM incubated for 1 hr in presence of ATP by Glo-luminescence based microplate reader assay relative to DMSO; design: species or system Microsome
[21] = biological target: P-gp (ABCB1) Q1193N mutant (Homo sapiens, UniProt P08183, Q1193N); test: Activation of P-gp ATPase activity in human P-gp Q1193N mutant expressed in HEK293FT cell microsomes assessed as fold change of ATPase activity at 20 uM incubated for 1 hr in presence of ATP by Glo-luminescence based microplate reader assay relative to DMSO; design: species or system Microsome; settings: read-out: FC

fold change (FC) [1]: 34.1 | Activity [2]: Active | Activity [3]: Not Active | fold change (FC) [4]: 67.7 | fold change (FC) [5]: 9.4 | fold change (FC) [6]: 51.4 | Activity [7]: 59.8% | Activity [8]: 74.6% | Activity [9]: 87.8% | Activity [10]: 96.4% | Activity [11]: 100.1% | Activity [12]: 93.3% | fold change (FC) [13]: 1 | fold change (FC) [14]: 1.1 | fold change (FC) [15]: 1.8 | fold change (FC) [16]: 1.3 | fold change (FC) [17]: 1.3 | fold change (FC) [18]: 1 | fold change (FC) [19]: 1 | fold change (FC) [20]: 1.1 | fold induction at 1 h, 20 µM [21]: 1.7
SMILES: O=c1cc(-c2ccc(OCCOCCNCc3ccccc3)cc2)oc2ccccc12
